Test results: BindingDB's records for doi:10.1021/jm400664x (Washington University, 2013)

biological target: T1, Vesicular acetylcholine transporter (Homo sapiens, UniProt Q16572); experiment: Displacement of (-)-[3H]vesamicol from human VAChT expressed in rat PC12 cell membrane after 20 hrs
T1 sequence (Q16572 whole entry): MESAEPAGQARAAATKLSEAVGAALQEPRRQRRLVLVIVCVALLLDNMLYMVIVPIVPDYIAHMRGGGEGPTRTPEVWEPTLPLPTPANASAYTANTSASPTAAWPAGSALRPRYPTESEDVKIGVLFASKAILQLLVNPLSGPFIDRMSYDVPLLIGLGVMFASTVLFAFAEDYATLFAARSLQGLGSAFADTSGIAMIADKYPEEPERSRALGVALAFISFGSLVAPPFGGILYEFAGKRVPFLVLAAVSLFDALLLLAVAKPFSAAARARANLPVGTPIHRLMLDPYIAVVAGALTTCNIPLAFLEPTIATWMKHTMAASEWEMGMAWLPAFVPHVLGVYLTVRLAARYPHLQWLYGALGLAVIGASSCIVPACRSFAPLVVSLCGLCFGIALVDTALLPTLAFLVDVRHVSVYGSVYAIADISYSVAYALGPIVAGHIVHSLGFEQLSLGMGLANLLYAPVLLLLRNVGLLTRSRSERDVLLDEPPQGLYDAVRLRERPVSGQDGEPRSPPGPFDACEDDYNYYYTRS

SMILES	Ki [nM]
CN(C)c1ccc(C(=O)C2CCN([C@@H]3Cc4ccccc4C[C@H]3O)CC2)cc1	0.93
O=C(c1cccnc1F)C1CCN([C@@H]2Cc3ccccc3C[C@H]2O)CC1	13
Cn1cccc1C(=O)C1CCN([C@@H]2Cc3cccc(N)c3C[C@H]2O)CC1	2310
CNc1ccc(C(=O)C2CCN([C@@H]3Cc4ccccc4C[C@H]3O)CC2)cc1	3
O=C(c1cccnc1)C1CCN([C@@H]2Cc3ccccc3C[C@H]2O)CC1	24
O=C(c1ccc(OCCF)nc1)C1CCN([C@@H]2Cc3ccccc3C[C@H]2O)CC1	38
Cn1ccc(C(=O)C2CCN([C@@H]3Cc4ccccc4C[C@H]3O)CC2)cc1=O	66
O=C(c1ccc(F)nc1)C1CCN([C@@H]2Cc3ccccc3C[C@H]2O)CC1	26
COc1cccnc1C(=O)C1CCN([C@@H]2Cc3ccccc3C[C@H]2O)CC1	121
O=C(c1ncccc1OCCF)C1CCN([C@@H]2Cc3ccccc3C[C@H]2O)CC1	76
Cn1ccc(C(=O)C2CCN([C@@H]3Cc4ccccc4C[C@H]3O)CC2)c1	27
Cn1cccc1C(=O)C1CCN([C@@H]2Cc3ccccc3C[C@H]2O)CC1	18
Cn1c(C(=O)C2CCN([C@@H]3Cc4ccccc4C[C@H]3O)CC2)cccc1=O	182
Cn1cccc1C(=O)C1CCN([C@@H]2Cc3c(N)cccc3C[C@H]2O)CC1	39
O=C(c1cncc(F)c1)C1CCN([C@@H]2Cc3ccccc3C[C@H]2O)CC1	10
